Reference: patent publication US20200138921A1, “METHODS OF PREVENTING AND TREATING DISEASES CHARACTERIZED BY SYNAPTIC DYSFUNCTION AND NEURODEGENERATION INCLUDING ALZHEIMER'S DISEASE” (The Trustees of Columbia University in the City of New York, priority 2017, published 2020)

Columns and labels:
EphB2 = test: Western blot of surface expressed EphB2 in hippocampal neurons; type: cell-based, rat; details: oAβ treated
Protocol: Enriched primary rat hippocampal neurons, cultured for 21 days in vitro, were treated with synthetic soluble oligomeric Aβ1-42 (hereinafter “oAβ”) for 24 hours. No cell death was detected under these conditions (data not shown).
Since Ube3A is also expressed in astrocytes (Grier et al. 2015), it was determined whether Ube3A levels were also altered in these cells.

Arc = test: Western blot of Arc in hippocampal neurons; type: cell-based, rat; details: Aβ for 8-10 hours
Protocol: (§1) Whole frozen mouse hippocampi, human brain specimens, and cultured cells were homogenized in RIPA buffer (ThermoFisher) supplemented with protease and phosphatase inhibitor cocktail (ThermoFisher), using a Teflon dounce homogenizer and centrifuged at 14,000 rpm for 10 minutes at 4° C. Supernatants were collected, normalized by BCA assay (ThermoFisher), and prepared for loading using sample buffer (SB) 4× (ThermoFisher) and dithiothreitol (DTT) 10× (ThermoFisher).
As observed in the Tg2576 mice hippocampi, the levels of Ube3A inversely correlated with the levels of Arc and Ephexin-5. To determine whether this correlation was also observed in hippocampal neurons, the cells were treated with Aβ for 8-10 hours, and whole cell lysates were collected for Western blot analysis.

Ube3A = Ube3A protein degradation in B35 cells (cycloheximide chase); type: cell-based, rat; details: CHX and oAβ for 4, 8 and 16 hours
Protocol: FIG. 5A is a graph showing the quantification of Western blots of the levels of Ube3A and GAPDH (as house-keeping protein) of B35 cells treated with cycloheximide (CHX) or CHX and oAβ for 4, 8 and 16 hours. […] Graphs represent mean values and standard deviation. Significance determined by one-way ANOVA followed by Tukey Post Hoc multiple comparisons.

J20 mice [1] = test: Dendritic spine density in hippocampus of J20 mice; type: in vivo; details: single TOP injection 275 μg
Protocol: The protocol for diolistic labeling of neurons was adapted from Gan et al. 2000 and Gan et al. 2009. Briefly, 100 mg of tungsten particles (1.1 μm diameter; Bio-Rad) were thoroughly precipitated with 5.0 mg of lipophilic dye (DiI; ThermoFisher) and dissolved in 100 μl of methylene chloride. Dye-coated particles were shot 2-3 times into the cells using the Helios gene gun system (Bio-Rad) and left in 0.1 M PBS overnight to allow dye diffusion along neuronal processes. Cells were post-fixed with 4% paraformaldehyde (Pierce) for 1 hour to preserve staining, then mounted onto glass slides using Gel Mount (Biomeda) and stored at 4° C. in the dark.
Labeled neurons were imaged using the Laser Scanning Microscope (LSM) 510 Meta confocal microscope (Zeiss), equipped with 40×1.3 NA and 100×1.4 NA oil-immersion objectives. The NIH Image software program ImageJ was used the quantify diolistic-labeled cultured neurons. An average of 12 compressed images (20 μm thick) consisting of pyramidal neurons were quantified for each treatment. Spines were counted with NeuronStudio software in a blinded manner and spine density was represented in number of spine per μm dendritic length. Statistical analysis was performed using the statistics package GraphPad Prism.
(§2) Controls were wild-type mice and J20 mice injected with PBS.

PSD95 = test: Western blot of PSD95 in hippocampal neurons; type: cell-based, rat; details: neurons pretreated with 300 nM TOP, oAβ for 24 hours
Protocol: as §1
To further test whether increasing Ube3A could rescue the effects of oAβ, cultured primary hippocampal neurons (14 DIV) were pretreated with 300 nM of TOP or control PBS. The neurons were then treated with oAβ for 24 hours, and whole cell lysates prepared for Western blot analysis, or fixed for microscopy.
Cells were also assessed for localization of PSD95 and NMDAR1, markers of postsynaptic terminals. Cells treated with TOP had increased levels of PSD95 and NMDAR1 (FIGS. 11B and 11C).

J20 mice [2] = test: Morris water maze in J20 AD mice; type: in vivo; details: single TOP injection 275 μg
Excerpt: The J20 transgenic mouse line also used in the studies expresses a mutated human APP (hAPP: K670N/M671L and V717F) under the control of the platelet-derived growth factor promoter (Mucke et al. 2000). These mice have deficits in learning and memory, inhibition of long-term potentiation, loss of dendritic spines, profuse amyloid plaques, and increased phosphorylation of the tau protein. These mice also have increased RhoA-GTP activity and progressive decrease in spinal density when treated with oligomeric Aβ. See Pozueta et al. 2013.
Mice were trained to find a hidden platform in a circular pool of 1.10 m diameter located in a room with extra maze cues. The location of the platform ([…] diameter) was constant for each mouse during training and was placed 1 cm beneath the surface of the water, maintained at 24° C.±2° C. throughout the duration of the test. At the end of test, the mice were dried off and placed in a clean cage with extra paper towels to prevent hypothermia Animals were then monitored inside their cage until eating, drinking, and ambulating normally Mice were trained in sessions consisting of four trials a day for five consecutive days. Mice started from different quadrants on a random basis during each trial and all four quadrants were used on any given day. The maximum swimming time allowed on each trial was 60 seconds.
Probe trials (1 session: 1 trials/session) were conducted 24 hours after the last training trial. During the probe test the platform was removed and mice were free to swim in the pool for 60 seconds. Time spent in each quadrant was measured. Trial and probe test sessions were recorded and analyzed with a video tracking system (Noldus). After the probe, mice were tested in the visible test for two consecutive days, 2 sessions/day with 3 trials/session to assess whether the mice were able to locate a visible platform (its location varied between the three trials of the same session). The ability of the mice to locate a clearly visible platform was also tested in order to exclude differences in vision, swim speed, and motivation. […]

J20 mice [3] = test: Long-term potentiation recordings, hippocampal slices of J20 mice; type: in vivo; details: single TOP injection 275 μg, vs PBS treated J20 mice
Protocol: Long-term potentiation (LTP) recordings were performed by positioning glass electrodes filled with artificial cerebrospinal fluid (ACSF) in the CA1 stratum radiatum to record Field Excitatory Post-Synaptic Potentials (fEPSPs) evoked by local stimulation (0.1 ms) of Schaffer collateral fibers using a bipolar concentric electrode placed laterally to the recoding electrode (approximately 150 μm). Following a steady baseline of 15 minutes, potentiation was induced with three theta-burst stimulations (TBS; 15 second interval), each one involving a single train of 10 bursts at 5 Hz, where each burst was composed of four pulses at 100 Hz (strong stimulation). The fEPSP slopes following tetanic stimulation were normalized to the average of the slopes of the fEPSPs acquired during the baseline.
as §2

Compound	levels of surface expressed EphB2 protein (EphB2)	levels of Arc protein (Arc)	degradation rate of the Ube3A protein (Ube3A)	dendritic spine density (J20 mice [1])	levels of PSD95 (PSD95)	learning (Morris water maze latency to platform) (J20 mice [2])	memory (Morris water maze time in target quadrant) (J20 mice [2])	motor functions or motivation (J20 mice [2]; speed and time to platform)	LTP in hippocampal slices (J20 mice [3])
oAβ: synthetic soluble oligomeric Aβ1-42	decrease	significant increase	significantly increased						
CC[C@@]1(O)C(=O)OCc2c1cc1n(c2=O)Cc2cc3c(CN(C)C)c(O)ccc3nc2-1 [TOP, topotecan]				significant increase	increased	did not affect	significantly increased	no effect	Enhancement
